Reference: the NIST ThermoML archive (doi:10.1016/j.jct.2013.05.012)
± gives the expanded uncertainty stated by the source.

How the values were obtained:
[1] = wn = mass fraction of the nth substance listed; details: 101 kPa, Liquid; for mass density: Pycnometric method; for viscosity: Capillary tube (Ostwald / Ubbelohde) method; for speed of sound: variable-path interferometer
[2] = mn = molality of the nth substance listed, in mol/kg; details: 101 kPa, Liquid, variable-path interferometer
[3] = 101 kPa, Liquid, Linear variable-path acoustic interferometer

OC[C@H]1O[C@@](CO)(O[C@H]2O[C@H](CO)[C@@H](O)[C@H](O)[C@H]2O)[C@@H](O)[C@@H]1O [D-sucrose] + O
mass density ([1]; 293.15 K, w1 = 0.05): 1018.91 ± 0.27 kg/m3 | mass density ([1]; 293.15 K, w1 = 0.1): 1039.28 ± 0.27 kg/m3 | mass density ([1]; 293.15 K, w1 = 0.15): 1060.31 ± 0.28 kg/m3 | mass density ([1]; 293.15 K, w1 = 0.2): 1082.73 ± 0.29 kg/m3 | viscosity ([1]; 298.15 K, w1 = 0.05): 1.011 ± 0.021 mPa·s | viscosity ([1]; 298.15 K, w1 = 0.1): 1.183 ± 0.025 mPa·s | viscosity ([1]; 298.15 K, w1 = 0.15): 1.418 ± 0.029 mPa·s | viscosity ([1]; 298.15 K, w1 = 0.2): 1.756 ± 0.036 mPa·s | mass density ([1]; 298.15 K, w1 = 0.05): 1017.19 ± 0.28 kg/m3 | mass density ([1]; 298.15 K, w1 = 0.1): 1037.45 ± 0.28 kg/m3 | mass density ([1]; 298.15 K, w1 = 0.15): 1058.49 ± 0.29 kg/m3 | mass density ([1]; 298.15 K, w1 = 0.2): 1080.77 ± 0.3 kg/m3 | speed of sound ([1]; 298.15 K, w1 = 0.05): 1516.5 ± 1.6 m/s | speed of sound ([1]; 298.15 K, w1 = 0.1): 1531.8 ± 1.6 m/s | speed of sound ([1]; 298.15 K, w1 = 0.15): 1543.6 ± 1.6 m/s | speed of sound ([1]; 298.15 K, w1 = 0.2): 1555.3 ± 1.6 m/s | viscosity ([1]; 303.15 K, w1 = 0.05): 0.9129 ± 0.019 mPa·s | viscosity ([1]; 303.15 K, w1 = 0.1): 1.061 ± 0.022 mPa·s | viscosity ([1]; 303.15 K, w1 = 0.15): 1.252 ± 0.026 mPa·s | viscosity ([1]; 303.15 K, w1 = 0.2): 1.549 ± 0.032 mPa·s | mass density ([1]; 303.15 K, w1 = 0.05): 1015.45 ± 0.29 kg/m3 | mass density ([1]; 303.15 K, w1 = 0.1): 1035.61 ± 0.3 kg/m3 | mass density ([1]; 303.15 K, w1 = 0.15): 1056.67 ± 0.3 kg/m3 | mass density ([1]; 303.15 K, w1 = 0.2): 1078.8 ± 0.31 kg/m3 | speed of sound ([1]; 303.15 K, w1 = 0.05): 1526.6 ± 1.6 m/s | speed of sound ([1]; 303.15 K, w1 = 0.1): 1541.8 ± 1.6 m/s | speed of sound ([1]; 303.15 K, w1 = 0.15): 1553 ± 1.6 m/s | speed of sound ([1]; 303.15 K, w1 = 0.2): 1564.6 ± 1.6 m/s | viscosity ([1]; 308.15 K, w1 = 0.05): 0.8285 ± 0.017 mPa·s | viscosity ([1]; 308.15 K, w1 = 0.1): 0.9614 ± 0.02 mPa·s | viscosity ([1]; 308.15 K, w1 = 0.15): 1.129 ± 0.024 mPa·s | viscosity ([1]; 308.15 K, w1 = 0.2): 1.396 ± 0.029 mPa·s | mass density ([1]; 308.15 K, w1 = 0.05): 1013.72 ± 0.3 kg/m3 | mass density ([1]; 308.15 K, w1 = 0.1): 1033.76 ± 0.31 kg/m3 | mass density ([1]; 308.15 K, w1 = 0.15): 1054.84 ± 0.31 kg/m3 | mass density ([1]; 308.15 K, w1 = 0.2): 1076.84 ± 0.32 kg/m3 | speed of sound ([1]; 308.15 K, w1 = 0.05): 1537.8 ± 1.6 m/s | speed of sound ([1]; 308.15 K, w1 = 0.1): 1551.6 ± 1.6 m/s | speed of sound ([1]; 308.15 K, w1 = 0.15): 1562 ± 1.6 m/s | speed of sound ([1]; 308.15 K, w1 = 0.2): 1575.2 ± 1.7 m/s | viscosity ([1]; 313.15 K, w1 = 0.05): 0.7457 ± 0.016 mPa·s | viscosity ([1]; 313.15 K, w1 = 0.1): 0.8804 ± 0.018 mPa·s | viscosity ([1]; 313.15 K, w1 = 0.15): 1.025 ± 0.021 mPa·s | viscosity ([1]; 313.15 K, w1 = 0.2): 1.25 ± 0.026 mPa·s | mass density ([1]; 313.15 K, w1 = 0.05): 1011.98 ± 0.31 kg/m3 | mass density ([1]; 313.15 K, w1 = 0.1): 1031.93 ± 0.32 kg/m3 | mass density ([1]; 313.15 K, w1 = 0.15): 1053.01 ± 0.32 kg/m3 | mass density ([1]; 313.15 K, w1 = 0.2): 1074.88 ± 0.33 kg/m3 | speed of sound ([1]; 313.15 K, w1 = 0.05): 1547.7 ± 1.6 m/s | speed of sound ([1]; 313.15 K, w1 = 0.1): 1561.8 ± 1.6 m/s | speed of sound ([1]; 313.15 K, w1 = 0.15): 1570.8 ± 1.6 m/s | speed of sound ([1]; 313.15 K, w1 = 0.2): 1583.9 ± 1.7 m/s | viscosity ([1]; 318.15 K, w1 = 0.05): 0.6946 ± 0.015 mPa·s | viscosity ([1]; 318.15 K, w1 = 0.1): 0.8179 ± 0.017 mPa·s | viscosity ([1]; 318.15 K, w1 = 0.15): 0.9402 ± 0.02 mPa·s | viscosity ([1]; 318.15 K, w1 = 0.2): 1.15 ± 0.024 mPa·s | mass density ([1]; 318.15 K, w1 = 0.05): 1010.23 ± 0.32 kg/m3 | mass density ([1]; 318.15 K, w1 = 0.1): 1030.09 ± 0.33 kg/m3 | mass density ([1]; 318.15 K, w1 = 0.15): 1051.2 ± 0.34 kg/m3 | mass density ([1]; 318.15 K, w1 = 0.2): 1072.93 ± 0.34 kg/m3 | speed of sound ([1]; 318.15 K, w1 = 0.05): 1557.2 ± 1.6 m/s | speed of sound ([1]; 318.15 K, w1 = 0.1): 1570.9 ± 1.6 m/s | speed of sound ([1]; 318.15 K, w1 = 0.15): 1579.2 ± 1.7 m/s | speed of sound ([1]; 318.15 K, w1 = 0.2): 1592.8 ± 1.7 m/s

C[C@@H](O)[C@H](N)C(=O)O [L-threonine] + O
speed of sound ([2]; 298.15 K, m1 = 0.0249): 1501.1 ± 1.6 m/s | speed of sound ([2]; 298.15 K, m1 = 0.0498): 1505.5 ± 1.6 m/s | speed of sound ([2]; 298.15 K, m1 = 0.0749): 1510.2 ± 1.6 m/s | speed of sound ([2]; 298.15 K, m1 = 0.0999): 1515.2 ± 1.6 m/s | speed of sound ([2]; 298.15 K, m1 = 0.125): 1520.5 ± 1.6 m/s | speed of sound ([2]; 298.15 K, m1 = 0.1499): 1526.1 ± 1.6 m/s | speed of sound ([2]; 298.15 K, m1 = 0.1749): 1531.9 ± 1.6 m/s | speed of sound ([2]; 298.15 K, m1 = 0.1999): 1538.1 ± 1.6 m/s | speed of sound ([2]; 303.15 K, m1 = 0.0249): 1512.5 ± 1.6 m/s | speed of sound ([2]; 303.15 K, m1 = 0.0498): 1516.9 ± 1.6 m/s | speed of sound ([2]; 303.15 K, m1 = 0.0749): 1521.6 ± 1.6 m/s | speed of sound ([2]; 303.15 K, m1 = 0.0999): 1526.5 ± 1.6 m/s | speed of sound ([2]; 303.15 K, m1 = 0.125): 1531.7 ± 1.6 m/s | speed of sound ([2]; 303.15 K, m1 = 0.1499): 1537.3 ± 1.6 m/s | speed of sound ([2]; 303.15 K, m1 = 0.1749): 1543.2 ± 1.6 m/s | speed of sound ([2]; 303.15 K, m1 = 0.1999): 1549.4 ± 1.6 m/s | speed of sound ([2]; 308.15 K, m1 = 0.0249): 1523.8 ± 1.6 m/s | speed of sound ([2]; 308.15 K, m1 = 0.0498): 1528.1 ± 1.6 m/s | speed of sound ([2]; 308.15 K, m1 = 0.0749): 1532.7 ± 1.6 m/s | speed of sound ([2]; 308.15 K, m1 = 0.0999): 1537.5 ± 1.6 m/s | speed of sound ([2]; 308.15 K, m1 = 0.125): 1542.7 ± 1.6 m/s | speed of sound ([2]; 308.15 K, m1 = 0.1499): 1548.2 ± 1.6 m/s | speed of sound ([2]; 308.15 K, m1 = 0.1749): 1553.9 ± 1.6 m/s | speed of sound ([2]; 308.15 K, m1 = 0.1999): 1560.1 ± 1.6 m/s | speed of sound ([2]; 313.15 K, m1 = 0.0249): 1530.7 ± 1.6 m/s | speed of sound ([2]; 313.15 K, m1 = 0.0498): 1534.9 ± 1.6 m/s | speed of sound ([2]; 313.15 K, m1 = 0.0749): 1539.4 ± 1.6 m/s | speed of sound ([2]; 313.15 K, m1 = 0.0999): 1544.1 ± 1.6 m/s | speed of sound ([2]; 313.15 K, m1 = 0.125): 1549.2 ± 1.6 m/s | speed of sound ([2]; 313.15 K, m1 = 0.1499): 1554.5 ± 1.6 m/s | speed of sound ([2]; 313.15 K, m1 = 0.1749): 1560.2 ± 1.6 m/s | speed of sound ([2]; 313.15 K, m1 = 0.1999): 1566.1 ± 1.6 m/s | speed of sound ([2]; 318.15 K, m1 = 0.0249): 1536.8 ± 1.6 m/s | speed of sound ([2]; 318.15 K, m1 = 0.0498): 1540.9 ± 1.6 m/s | speed of sound ([2]; 318.15 K, m1 = 0.0749): 1545.2 ± 1.6 m/s | speed of sound ([2]; 318.15 K, m1 = 0.0999): 1549.8 ± 1.6 m/s | speed of sound ([2]; 318.15 K, m1 = 0.125): 1554.8 ± 1.6 m/s | speed of sound ([2]; 318.15 K, m1 = 0.1499): 1560 ± 1.6 m/s | speed of sound ([2]; 318.15 K, m1 = 0.1749): 1565.5 ± 1.6 m/s | speed of sound ([2]; 318.15 K, m1 = 0.1999): 1571.3 ± 1.6 m/s

O [water]
speed of sound ([3]; 303.15 K): 1508.4 ± 1.6 m/s | speed of sound ([3]; 313.15 K): 1526.8 ± 1.6 m/s | speed of sound ([3]; 318.15 K): 1533 ± 1.6 m/s
